According to PubChem BioAssay AID1963846 (Molecular Pharmacology Branch, DTP, NCI, 2024):

System: 454973-116-R2-J3-PDC complex spheroid viability
Assay: Anticancer human tumor 454973-116-R2-J3-PDC patient-derived pancreatic carcinoma cell line growth inhibition [POLQ]
Details: for IC50: curve of first compound; for viability, T/C: stronger effect = lower value
Summary of the method: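 Patient-derived tumour cells were co-cultured with HUVEC and mesenchymal stem cells as multicellular spheroids at 37 °C. They were treated with POLQ inhibitors (novobiocin, ART-558, RP6685) alone or combined with other agents. Top concentrations were at or near clinical Cmax (otherwise 10 microM; SN-38 at 1 microM), decreasing in half-log steps.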

[1] = second compound 0.0316 µM, first compound 0.00316 µM
[2] = second compound 0.0316 µM, first compound 0.01 µM
[3] = second compound 0.0316 µM, first compound 0.0316 µM
[4] = second compound 0.0316 µM, first compound 0.1 µM
[5] = second compound 0.0316 µM, first compound 0.316 µM
[6] = second compound 0.0316 µM, first compound 1 µM
[7] = second compound 0.1 µM, first compound 0.00316 µM
[8] = second compound 0.1 µM, first compound 0.01 µM
[9] = second compound 0.1 µM, first compound 0.0316 µM
[10] = second compound 0.1 µM, first compound 0.1 µM
[11] = second compound 0.1 µM, first compound 0.316 µM
[12] = second compound 0.1 µM, first compound 1 µM
[13] = second compound 0.316 µM, first compound 0.00316 µM
[14] = second compound 0.316 µM, first compound 0.01 µM
[15] = second compound 0.316 µM, first compound 0.0316 µM
[16] = second compound 0.316 µM, first compound 0.1 µM
[17] = second compound 0.316 µM, first compound 0.316 µM
[18] = second compound 0.316 µM, first compound 1 µM
[19] = second compound 1 µM, first compound 0.00316 µM
[20] = second compound 1 µM, first compound 0.01 µM
[21] = second compound 1 µM, first compound 0.0316 µM
[22] = second compound 1 µM, first compound 0.1 µM
[23] = second compound 1 µM, first compound 0.316 µM
[24] = second compound 1 µM, first compound 1 µM
[25] = second compound 3.16 µM, first compound 0.00316 µM
[26] = second compound 3.16 µM, first compound 0.01 µM
[27] = second compound 3.16 µM, first compound 0.0316 µM
[28] = second compound 3.16 µM, first compound 0.1 µM
[29] = second compound 3.16 µM, first compound 0.316 µM
[30] = second compound 3.16 µM, first compound 1 µM
[31] = second compound 10 µM, first compound 0.00316 µM
[32] = second compound 10 µM, first compound 0.01 µM
[33] = second compound 10 µM, first compound 0.0316 µM
[34] = second compound 10 µM, first compound 0.1 µM
[35] = second compound 10 µM, first compound 0.316 µM
[36] = second compound 10 µM, first compound 1 µM
[37] = second compound 0.0316 µM, first compound 3.16 µM
[38] = second compound 0.0316 µM, first compound 10 µM
[39] = second compound 0.1 µM, first compound 3.16 µM
[40] = second compound 0.1 µM, first compound 10 µM
[41] = second compound 0.316 µM, first compound 3.16 µM
[42] = second compound 0.316 µM, first compound 10 µM
[43] = second compound 1 µM, first compound 3.16 µM
[44] = second compound 1 µM, first compound 10 µM
[45] = second compound 3.16 µM, first compound 3.16 µM
[46] = second compound 3.16 µM, first compound 10 µM
[47] = second compound 10 µM, first compound 3.16 µM
[48] = second compound 10 µM, first compound 10 µM
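Note: spheroids exposed to drugs for seven days before measurement.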
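Throughout, for viability, T/C: percent viability relative to DMSO vehicle control wells taken as 100%.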

With `C=CCn1c(=O)c2cnc(Nc3ccc(N4CCN(C)CC4)cc3)nc2n1-c1cccc(C(C)(C)O)n1` + COC1C(OC(N)=O)C(O)C(Oc2ccc3c(O)c(NC(=O)c4ccc(O)c(CC=C(C)C)c4)c(=O)oc3c2C)OC1(C)C the IC50 (second compound 0.0316 µM) was 548 nM, the IC50 (second compound 0.1 µM) was 527 nM and the IC50 (second compound 0.316 µM) was 535 nM. It also gave an IC50 (second compound 1 µM) of 549 nM, an IC50 (second compound 3.16 µM) of 596 nM and an IC50 (second compound 10 µM) of 571 nM. The viability, T/C [1] was 107%, the viability, T/C [2] was 98.3% and the viability, T/C [3] was 102%. The viability, T/C [4] was 95.5%, the viability, T/C [5] was 81.2% and the viability, T/C [6] was 16.6%. The viability, T/C [7] was 99.7%, the viability, T/C [8] was 104% and the viability, T/C [9] was 102%. The viability, T/C [10] was 103%, the viability, T/C [11] was 76.1% and the viability, T/C [12] was 17.3%. It also gave a viability, T/C [13] of 102%, a viability, T/C [14] of 104% and a viability, T/C [15] of 104%. It also gave a viability, T/C [16] of 103%, a viability, T/C [17] of 74.7% and a viability, T/C [18] of 20.5%. For the same compound, the viability, T/C [19] was 112%, the viability, T/C [20] was 101% and the viability, T/C [21] was 105%. The viability, T/C [22] was 104%, the viability, T/C [23] was 79.2% and the viability, T/C [24] was 18.2%. It also gave a viability, T/C [25] of 104%, a viability, T/C [26] of 106% and a viability, T/C [27] of 111%. For the same compound, the viability, T/C [28] was 110%, the viability, T/C [29] was 86.8% and the viability, T/C [30] was 19.8%. For the same compound, the viability, T/C [31] was 101%, the viability, T/C [32] was 98.8% and the viability, T/C [33] was 99.5%. For the same compound, the viability, T/C [34] was 105%, the viability, T/C [35] was 82.9% and the viability, T/C [36] was 18.8%.

Compound `CC1COCCN1c1cc(C2(S(C)(=N)=O)CC2)nc(-c2ccnc3[nH]ccc23)n1` (stereo not drawn) + COC1C(OC(N)=O)C(O)C(Oc2ccc3c(O)c(NC(=O)c4ccc(O)c(CC=C(C)C)c4)c(=O)oc3c2C)OC1(C)C has an IC50 (second compound 0.0316 µM) of 5990 nM, an IC50 (second compound 0.1 µM) of 6040 nM and an IC50 (second compound 0.316 µM) of 7300 nM. For the same compound, the IC50 (second compound 1 µM) was 6190 nM, the IC50 (second compound 3.16 µM) was 6150 nM and the IC50 (second compound 10 µM) was 6050 nM. For the same compound, the viability, T/C [3] was 102%, the viability, T/C [4] was 104% and the viability, T/C [5] was 105%. For the same compound, the viability, T/C [6] was 102%, the viability, T/C [37] was 77.1% and the viability, T/C [38] was 28.1%. It also gave a viability, T/C [9] of 107%, a viability, T/C [10] of 114% and a viability, T/C [11] of 101%. It also gave a viability, T/C [12] of 101%, a viability, T/C [39] of 71.8% and a viability, T/C [40] of 32.8%. For the same compound, the viability, T/C [15] was 103%, the viability, T/C [16] was 110% and the viability, T/C [17] was 116%. The viability, T/C [18] was 105%, the viability, T/C [41] was 81.1% and the viability, T/C [42] was 38.3%. The viability, T/C [21] was 127%, the viability, T/C [22] was 104% and the viability, T/C [23] was 109%. It also gave a viability, T/C [24] of 109%, a viability, T/C [43] of 68.2% and a viability, T/C [44] of 37%. It also gave a viability, T/C [27] of 118%, a viability, T/C [28] of 99.9% and a viability, T/C [29] of 101%. The viability, T/C [30] was 97.2%, the viability, T/C [45] was 75.8% and the viability, T/C [46] was 30.9%. For the same compound, the viability, T/C [33] was 114%, the viability, T/C [34] was 97% and the viability, T/C [35] was 104%. It also gave a viability, T/C [36] of 93.9%, a viability, T/C [47] of 74% and a viability, T/C [48] of 31.2%.

For `COc1cccc(OCCCN)c1-c1cc(Nc2cnc(C#N)cn2)n[nH]1` + COC1C(OC(N)=O)C(O)C(Oc2ccc3c(O)c(NC(=O)c4ccc(O)c(CC=C(C)C)c4)c(=O)oc3c2C)OC1(C)C, the IC50 (second compound 0.0316 µM) was 16.9 nM, the IC50 (second compound 0.1 µM) was 16.5 nM and the IC50 (second compound 0.316 µM) was 15.2 nM. It also gave an IC50 (second compound 1 µM) of 15.5 nM, an IC50 (second compound 3.16 µM) of 15.8 nM and an IC50 (second compound 10 µM) of 15.1 nM. The viability, T/C [1] was 103%, the viability, T/C [2] was 78% and the viability, T/C [3] was 16.5%. The viability, T/C [4] was 5.78%, the viability, T/C [5] was 6.6% and the viability, T/C [6] was 5.48%. For the same compound, the viability, T/C [7] was 103%, the viability, T/C [8] was 78.8% and the viability, T/C [9] was 12.9%. The viability, T/C [10] was 5.6%, the viability, T/C [11] was 5.16% and the viability, T/C [12] was 6.37%. It also gave a viability, T/C [13] of 95.6%, a viability, T/C [14] of 70.8% and a viability, T/C [15] of 13.3%. For the same compound, the viability, T/C [16] was 5.72%, the viability, T/C [17] was 3.83% and the viability, T/C [18] was 4.13%. For the same compound, the viability, T/C [19] was 97%, the viability, T/C [20] was 73.2% and the viability, T/C [21] was 12.2%. For the same compound, the viability, T/C [22] was 6.82%, the viability, T/C [23] was 5.97% and the viability, T/C [24] was 5.82%. For the same compound, the viability, T/C [25] was 107%, the viability, T/C [26] was 75.5% and the viability, T/C [27] was 11%. It also gave a viability, T/C [28] of 7.17%, a viability, T/C [29] of 6.78% and a viability, T/C [30] of 5.38%. The viability, T/C [31] was 104%, the viability, T/C [32] was 68% and the viability, T/C [33] was 17.8%. It also gave a viability, T/C [34] of 6.01%, a viability, T/C [35] of 7.28% and a viability, T/C [36] of 7.27%.

`O=C(c1cc(Cc2n[nH]c(=O)c3ccccc23)ccc1F)N1CCN(C(=O)C2CC2)CC1` + COC1C(OC(N)=O)C(O)C(Oc2ccc3c(O)c(NC(=O)c4ccc(O)c(CC=C(C)C)c4)c(=O)oc3c2C)OC1(C)C showed an IC50 (second compound 0.0316 µM) greater than 10000 nM, an IC50 (second compound 0.1 µM) greater than 10000 nM and an IC50 (second compound 0.316 µM) greater than 10000 nM. For the same compound, the IC50 (second compound 1 µM) was greater than 10000 nM, the IC50 (second compound 3.16 µM) was greater than 10000 nM and the IC50 (second compound 10 µM) was greater than 10000 nM. It also gave a viability, T/C [3] of 103%, a viability, T/C [4] of 105% and a viability, T/C [5] of 96.9%. It also gave a viability, T/C [6] of 116%, a viability, T/C [37] of 93.7% and a viability, T/C [38] of 61.6%. It also gave a viability, T/C [9] of 106%, a viability, T/C [10] of 113% and a viability, T/C [11] of 106%. It also gave a viability, T/C [12] of 116%, a viability, T/C [39] of 94.6% and a viability, T/C [40] of 63.2%. The viability, T/C [15] was 110%, the viability, T/C [16] was 107% and the viability, T/C [17] was 99.4%. For the same compound, the viability, T/C [18] was 113%, the viability, T/C [41] was 98.3% and the viability, T/C [42] was 69.7%. It also gave a viability, T/C [21] of 121%, a viability, T/C [22] of 104% and a viability, T/C [23] of 104%. It also gave a viability, T/C [24] of 105%, a viability, T/C [43] of 97.5% and a viability, T/C [44] of 63.3%. For the same compound, the viability, T/C [27] was 115%, the viability, T/C [28] was 104% and the viability, T/C [29] was 109%. It also gave a viability, T/C [30] of 103%, a viability, T/C [45] of 94.7% and a viability, T/C [46] of 64.2%. It also gave a viability, T/C [33] of 106%, a viability, T/C [34] of 94% and a viability, T/C [35] of 95.6%. The viability, T/C [36] was 107%, the viability, T/C [47] was 99.2% and the viability, T/C [48] was 59.4%.
